Laboratory results taken from patent US20220249622A1, “METHOD FOR PROTECTING BRAIN NEURON CELLS WITH BIOACTIVE COMPOUND” (TCI CO., LTD., priority 2021, published 2022).

Columns and labels:
[1] = tested on: human brain neurons SH-SYSY; experiment: Inhibitory effect on brain neuron damage caused by MPP+ (MTT cell viability); type: cell-based; settings: 5 μM MPP+ alone (control group), 48 hours
Procedure: The cells, culture medium, MTT apoptosis detection solution, ELISA reader, and statistical method of cell viability used in this example are the same as in Example 5, and details are not described herein again.
The SII-SYSY cells were seeded at a density of 5×10^3 cells per well into a 96-well culture plate and incubated for 24 hours at 37° C. and 5% CO2.
The culture medium was removed from each well. The SH-SYSY cells were divided into a blank group, a control group, and an experimental group. The fresh culture medium was added into the wells of the blank group. The fresh culture medium containing 5 μM MPP+ was added into the wells of the control group. The fresh culture medium containing 5 μM MPP+ and 1 mg/mL catfish skin collagen peptide powder from Example 1 was added into the wells of the experimental group. Each group was triplicated and incubated at 37° C. for 48 hours.
Then, 15 μL of 5 MTT apoptosis detection solution was added to each group for 3-4 h at 37° C. and 5% CO2.
The culture medium in each well was removed. In each group, 50 μL of DMSO was added to dissolve the purple crystals of formazan. Finally, an absorbance (at 570 nm) of each group was measured by an ELISA reader to analyze the cell viability of each group.
Taking the value of the blank group as 100% of cell viability, each value of the control group and the experimental group was converted into cell viability (%).

[2] = tested on: mouse brain neuroblastoma cells Nero2a; experiment: Activity of mitochondria of neuron cells (JC-1 mitochondrial membrane potential assay, flow cytometer); type: cell-based; settings: 24 hours, control group = 100%
Text: 1. Cell strain: mouse brain neuroblastoma. cells Nero2a, from the American Type
Culture Collection (ATCC®, Cat. CCL-131), hereinafter referred to as Nero2a cells.
2. Culture medium: Dulbecco's modified Eagle's medium (DMEM, purchased from Gibco, Cat. 11965-092) containing 10 vol % of Fetal Bovine Serum (FBS, purchased from Gibco, 10437-028) and 3.7 g/L of sodium bicarbonate (purchased from Sigma, S5761-500G).
4. Mitochondrial n embranepotential assay kit (MitoScreen (.IC-1) kit purchased from BD, model 551302): with ,IC-1 dye (lyophilized) and 10× assay buffer. Before use, the assay buffer was diluted 10-fold with 1 PBS solution to form 1× assay buffer, 130 μl of dimethyl sulfoxide (DMSO) was added into the JC-1 dye (lyophilized) to form a JC-1 stock solution. Then, the stock solution was diluted to 1/100 with the 1 × assay buffer to form a JC-1 working reagent
6. Flow cytometer: purchased from BD Pharmingen, model BDTM Accuri C6 Plus.
The Nero2a cells were seeded into a 6-well culture plate at a density of […] cells per well, and 2 ml., of the above-mentioned fresh culture medium was added to each well and incubated for 24 hours at 37° C. and 5% CO2.
Remove the culture medium from each well. The Nero2a cells were divided into a control group and experimental groups 1-5. Control group was added with the fresh culture medium. Experimental group I was added with fresh culture medium containing 50 μg/mL synthesized peptide of SEQ .117 NO :1; experimental group 2 was added with fresh culture medium containing 50 μg/mL synthesized peptide of SEQ ID NO:2; experimental group 3 was added with fresh culture medium containing 50 μg/mL synthesized peptide of SEQ ID NO 3, experimental group 4 was added with fresh culture medium containing 25 μg/mL synthesized peptide of SEQ ID NO:4; and experimental group 5 was added with fresh culture medium containing 1 mg/mL of catfish skin collagen peptide powder from Example. 1. Each group was triplicated and incubated at 37C. for 24 hours.
In each group, the culture medium was removed, and then the cells were washed twice with the PBS solution. Then, 200 μL of trypsin solution was added to react with the cells for 3 min, and 6 mL of fresh culture medium was added to stop the reaction. […]
The cell solution of the control group and the cell solution of each experimental group were analyzed for the activity of mitochondria by using a flow cytometer.
Standard deviations were calculated by an STDEV formula of Excel software, and whether statistically significant differences existed or not was analyzed by one-tail student t-test in the Excel software. […] The p value of each group was calculated compared to the control group. […]

Compound | relative accumulation of JC-1 ([2]; 50 μg/mL synthesized peptide) | also measured
C[n+]1ccc(-c2ccccc2)cc1 [MPP+, 1-methyl-4-phenylpyridin-1-ium] |  | cell viability ([1]; SH-SYSY cells, blank group = 100%): 86%; cell viability reduced by ([1]; vs blank group): 14%
TAELEPLTDG (listed as Pangasius bocourti) [SEQ ID NO: 2, synthesized peptide, peptide fragment of NAD synthetase 1 from catfish skin] | 150,17% | 
NGTGPQNH (listed as Pangasius bocourti) [SEQ ID NO: 1] | 146.90% | 
LVMGFHPQYL (listed as Pangasius bocourti) [SEQ ID NO: 4, synthesized peptide, peptide fragment of sestrin 1 from catfish skin] |  | relative accumulation of JC-1 ([2]; 25 μg/mL synthesized peptide): 115.74%
GRGGFGGRGGFG (listed as Pangasius bocourti) [SEQ ID NO: 3, synthesized peptide, peptide fragment of nucleolin from catfish skin] | 120.95% | 
